Measured values published in patent publication US20260374766A1, “METHODS FOR TREATING CANCER” (Antares Therapeutics, Inc., priority 2022, published 2026).

Legend:
[1] = target: T1, p53 Y220C mutant protein (amino acid residues 94-293) (Homo sapiens, UniProt P04637, Y220C); assay: Surface Plasmon Resonance (SPR) assay, Kd_kinetic; format: binding; details: SPR, kinetic KD, p53 Y220C; read-out: SPR P53 Y220C KD kinetic
T1 construct: p53 Y220C mutant protein (amino acid residues 94-293)
Outline: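 Binding measured by SPR on a Biacore 8K in running buffer of 50 mM Tris pH 7.5, 100 mM NaCl, 1 mM DTT, 0.01% Brij35, 0.05% Tween-20, 1% DMSO.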

[2] = target: T1, p53 Y220C mutant protein (amino acid residues 94-293); assay: Thermal Shift Assay (TSA), dTM; format: binding; details: thermal shift; for ΔTm at 10 µM: 10 uM compound, read-out: TSA P53 Y220C dTM (10 uM); for ΔTm at 100 µM: 100 uM compound, read-out: TSA P53 Y220C dTM (100 uM)
Outline: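 5 μM p53 Y220C (residues 94-293) incubated 3 h at 20 °C with 10 μM or 100 μM compound in 20 mM HEPES pH 7.4, 100 mM NaCl, 0.01% Pluronic F-127, 1% DMSO plus Sypro Orange. Melt from 30 to 50 °C at 0.03 °C/s; TM from Boltzmann two-state fit.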

p53 Y220C = p53 Y220C (Homo sapiens, UniProt P04637, Y220C); assay: Luciferase Reporter Assay (Luc), p53 response element, NClH1299 cells with inducible p53 Y220C; format: cell-based; details: luciferase reporter, NClH1299 inducible p53 Y220C, 6 hour; for Emax: 10 uM tool compound as positive control; for AC50: read-out: Luc P53 Y220C AC50
Outline: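 H1299 cells induced with 0.5 ug/mL doxycycline for 24 hours, then exposed to compound for 6 hours. p53 response-element luciferase read by One-Glo luminescence after 5 min shaking at room temperature.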

NUGC3 p53 Y220C = assay: Cell Proliferation Assay (CellTiter-Glo, CTG), NUGC3 p53 Y220C; format: cell-based; details: Homo sapiens, NUGC-3, 120 h, CellTiter-Glo, NUGC3 p53 Y220C, 5 days
Outline: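 NClH1299 lines stably transduced with Tet-inducible p53 Y220C or R273H, plus NUGC3, were treated with compound for 5 days at 250-500 cells/well. IC50 derived from CellTiter-Glo luminescent signal after 10 min room-temperature incubation.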

H1299 p53 Y220C = assay: Cell Proliferation Assay (CellTiter-Glo, CTG), H1299 p53 Y220C (NClH1299-inducible p53 Y220C); format: cell-based; details: Homo sapiens, NCI-H1299, 120 h, CellTiter-Glo, H1299 p53 Y220C, 5 days
Outline: (§1)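 Cells seeded at 250-500 per well and exposed to compound for 5 days. Viability read by CellTiter-Glo luminescence after 10 min at room temperature; IC50 calculated. H1299 lines carry Tet-One inducible p53 mutant constructs introduced by lentiviral transduction.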

H1299 p53 R273H = assay: Cell Proliferation Assay (CellTiter-Glo, CTG), H1299 p53 R273H (NClH1299-inducible p53 R273H); format: cell-based; details: Homo sapiens, NCI-H1299, 120 h, CellTiter-Glo, H1299 p53 R273H, 5 days
Outline: as §1

| SMILES | Kd [1] | ΔTm at 10 µM [2] | ΔTm at 100 µM [2] | Emax (p53 Y220C) | AC50 (p53 Y220C) | IC50 (NUGC3 p53 Y220C) | IC50 (H1299 p53 Y220C) | IC50 (H1299 p53 R273H) |
| --- | --- | --- | --- | --- | --- | --- | --- | --- |
| CNC(=O)c1ccc(NCC#Cc2nc3c(N[C@@H]4CCN(C)C[C@@H]4F)cccn3c2SC(F)(F)F)c(OC(F)F)c1 [Example 105, 3-(difluoromethoxy)-4-{[3-(8-{[(3S,4R)-3-fluoro-1-methylpiperidin-4-yl]amino}-3-[(trifluoromethyl)sulfanyl]imidazo[1,2-a]pyridin-2-yl)prop-2-yn-1-yl]amino}-N-methylbenzamide] | < 0.01 µM | ≥ 10 °C | ≥ 10 °C | 80 to 90% | < 0.75 µM | < 0.75 µM | < 0.75 µM | 8 to 10 µM |
| CNC(=O)c1ccc(NCC#Cc2nc3c(N[C@@H]4CCN(C)C[C@@H]4F)cccn3c2SC(F)F)c(OC)c1 [Example 106, 4-[(3-{3-[(difluoromethyl)sulfanyl]-8-{[(3S,4R)-3-fluoro-1-methylpiperidin-4-yl]amino}imidazo[1,2-a]pyridin-2-yl}prop-2-yn-1-yl)amino]-3-methoxy-N-methylbenzamide] | < 0.01 µM | 5 to 10 °C | ≥ 10 °C | 70 to 80% | < 0.75 µM | < 0.75 µM | < 0.75 µM | ≥ 10 µM |
| CNC(=O)c1ccc(OC)c(NCC#Cc2nc3c(N[C@@H]4CCN(C)C[C@@H]4F)cccn3c2SC(F)(F)F)c1 [Example 107, 3-{[3-(8-{[(3S,4R)-3-fluoro-1-methylpiperidin-4-yl]amino}-3-[(trifluoromethyl)sulfanyl]imidazo[1,2-a]pyridin-2-yl)prop-2-yn-1-yl]amino}-4-methoxy-N-methylbenzamide] | < 0.01 µM | ≥ 10 °C | ≥ 10 °C | 80 to 90% | < 0.75 µM | < 0.75 µM | < 0.75 µM | < 5 µM |
| CCNC(=O)c1ccc(OC)c(NCC#Cc2nc3c(N[C@@H]4CCN(C)C[C@@H]4F)cccn3c2SC(F)(F)F)c1 [Example 108, N-ethyl-3-{[3-(8-{[(3S,4R)-3-fluoro-1-methylpiperidin-4-yl]amino}-3-[(trifluoromethyl)sulfanyl]imidazo[1,2-a]pyridin-2-yl)prop-2-yn-1-yl]amino}-4-methoxybenzamide] | < 0.01 µM | ≥ 10 °C | ≥ 10 °C | 80 to 90% | < 0.75 µM | < 0.75 µM | < 0.75 µM | 8 to 10 µM |
| COc1ccc(C(=O)NC2CC2)cc1NCC#Cc1nc2c(N[C@@H]3CCN(C)C[C@@H]3F)cccn2c1SC(F)(F)F [Example 109, N-cyclopropyl-3-{[3-(8-{[(3S,4R)-3-fluoro-1-methylpiperidin-4-yl]amino}-3-[(trifluoromethyl)sulfanyl]imidazo[1,2-a]pyridin-2-yl)prop-2-yn-1-yl]amino}-4-methoxybenzamide] | < 0.01 µM | ≥ 10 °C | ≥ 10 °C | 80 to 90% | < 0.75 µM | < 0.75 µM | < 0.75 µM | 8 to 10 µM |
| COc1cc2c(cc1NCC#Cc1nc3c(N[C@@H]4CCN(C)C[C@@H]4F)cccn3c1CC(F)(F)F)CCNC2=O [Example 110, 6-{[3-(8-{[(3S,4R)-3-fluoro-1-methylpiperidin-4-yl]amino}-3-(2,2,2-trifluoroethyl)imidazo[1,2-a]pyridin-2-yl)prop-2-yn-1-yl]amino}-7-methoxy-3,4-dihydro-2H-isoquinolin-1-one] | < 0.01 µM |  | ≥ 10 °C | 80 to 90% | < 0.75 µM | < 0.75 µM | < 0.75 µM | 5 to 8 µM |
| CNC(=O)c1cc(OC)c(NCC#Cc2nc3c(N[C@@H]4CCN(C)C[C@@H]4F)cccn3c2CC(F)(F)F)cc1Cl [Example 111, 2-chloro-4-{[3-(8-{[(3S,4R)-3-fluoro-1-methylpiperidin-4-yl]amino}-3-(2,2,2-trifluoroethyl)imidazo[1,2-a]pyridin-2-yl)prop-2-yn-1-yl]amino}-5-methoxy-N-methylbenzamide] | < 0.01 µM |  | ≥ 10 °C | > 90% | 0.75 to 1.5 µM | 0.75 to 1.5 µM | 0.75 to 1.5 µM | ≥ 10 µM |
| CN1CC[C@@H](Nc2cccn3c(CC(F)(F)F)c(C#CCNc4ccccc4)nc23)[C@@H](F)C1 [Example 112, (3S,4R)-3-fluoro-1-methyl-N-{2-[3-(phenylamino)prop-1-yn-1-yl]-3-(2,2,2-trifluoroethyl)imidazo[1,2-a]pyridin-8-yl}piperidin-4-amine] | 0.1 to 1 µM |  | 5 to 10 °C | 70 to 80% | > 3 µM | > 3 µM | > 3 µM | ≥ 10 µM |
| COCCN1CCC(Nc2cccn3c(CC(F)(F)F)c(C#CCNc4ccc(S(C)(=O)=O)cc4OC)nc23)CC1 [Example 113, N-(2-{3-[(4-methanesulfonyl-2-methoxyphenyl)amino]prop-1-yn-1-yl}-3-(2,2,2-trifluoroethyl)imidazo[1,2-a]pyridin-8-yl)-1-(2-methoxyethyl)piperidin-4-amine] | 0.01 to 0.1 µM |  | ≥ 10 °C | < 70% | 1.5 to 3 µM | 0.75 to 1.5 µM | 0.75 to 1.5 µM | 5 to 8 µM |
| COc1cc(S(C)(=O)=O)ccc1NCC#Cc1nc2c(NC3CC4(C3)CN(C)C4)cccn2c1CC(F)(F)F [Example 114, N-(2-{3-[(4-methanesulfonyl-2-methoxyphenyl)amino]prop-1-yn-1-yl}-3-(2,2,2-trifluoroethyl)imidazo[1,2-a]pyridin-8-yl)-2-methyl-2-azaspiro[3.3]heptan-6-amine] | 0.01 to 0.1 µM |  | ≥ 10 °C | 70 to 80% | > 3 µM | 1.5 to 3 µM | > 3 µM | 5 to 8 µM |
| COc1cc(S(C)(=O)=O)ccc1NCC#Cc1nc2c(NC3CC4(COC4)C3)cccn2c1CC(F)(F)F [Example 115, 2-{3-[(4-methanesulfonyl-2-methoxyphenyl)amino]prop-1-yn-1-yl}-N-{2-oxaspiro[3.3]heptan-6-yl}-3-(2,2,2-trifluoroethyl)imidazo[1,2-a]pyridin-8-amine] | 0.1 to 1 µM |  | 5 to 10 °C | < 70% | > 3 µM | > 3 µM | > 3 µM | ≥ 10 µM |
